Assay results reported in article PMC7794217, “A bi-specific lectin from the mushroom Boletopsis grisea and its application in glycoanalytical workflows” (Scientific Reports, 2021).

What was measured:
Test in all cases: SPR (Biacore […]), equilibrium fit to […] model
Format in all cases: binding
[1] = target: T1, BGL (Boletopsis grisea lectin), recombinant wild-type rBGL (Boletopsis grisea, UniProt A0A1L2F5J1)
T1 construct: full-length 143 amino acid ORF (GenBank KT315924), expressed in E. coli, lacking N-terminal Met

[2] = target: T2, BGL (Boletopsis grisea lectin), G49N mutant (Boletopsis grisea, UniProt A0A1L2F5J1, G49N)
T2 construct: full-length BGL ORF expressed in E. coli

[3] = target: T3, BGL (Boletopsis grisea lectin), H71E mutant (Boletopsis grisea, UniProt A0A1L2F5J1, H71E)
T3 construct: full-length BGL ORF expressed in E. coli

[4] = target: T4, BGL (Boletopsis grisea lectin), S48K mutant (Boletopsis grisea, UniProt A0A1L2F5J1, S48K)
T4 construct: full-length BGL ORF expressed in E. coli
T4 sequence (A0A1L2F5J1 entry or part of it S48K): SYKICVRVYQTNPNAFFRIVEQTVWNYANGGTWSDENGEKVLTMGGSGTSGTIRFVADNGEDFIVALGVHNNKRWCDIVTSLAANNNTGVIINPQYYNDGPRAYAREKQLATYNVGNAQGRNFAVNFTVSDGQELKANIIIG

T1 sequence (A0A1L2F5J1 2-143): as the sequence (A0A1L2F5J1 entry or part of it S48K) above
T2 sequence (A0A1L2F5J1 entry or part of it G49N): as the sequence (A0A1L2F5J1 entry or part of it S48K) above
T3 sequence (A0A1L2F5J1 entry or part of it H71E): as the sequence (A0A1L2F5J1 entry or part of it S48K) above

CC(=O)N[C@H]1C(O)O[C@H](CO)[C@@H](O)[C@@H]1O (stereo partly shown) [GlcNAc]
Kd [1]: 1.086 ± 0.008 mM
Kd [2]: 0.91 ± 0.01 mM
Kd [3]: 2.33 ± 0.08 mM
Kd [4]: 1.01 ± 0.02 mM
